Experimental findings from PMC10927987, “Biochemical characterization, structure-guided mutagenesis, and application of a recombinant D-allulose 3-epimerase from Christensenellaceae bacterium for the biocatalytic production of D-allulose” (Frontiers in Bioengineering and Biotechnology, 2024) are described below.

As usually defined, the Km is the substrate concentration at which the rate is half of its maximum.

For this test, the system named is T1, CbDAE.
T1 construct: codon-optimized gene in pET-28a(+) (NdeI/EcoRI), E. coli BL21(DE3), Ni-NTA purified, His tag; mutagenesis template given as pET22b-CbDAE
The test can be described thus: epimerization, HPLC-RI, Michaelis-Menten fit. Type of test: biochemical, Christensenellaceae bacterium. The settings on record: standard reaction conditions: 1 mM Co2+, 60 °C, 10 min; 5-300 mM substrate. From the text:
epimerization, HPLC-RI, Michaelis-Menten fit on CbDAE
`OCC1(O)OC[C@@H](O)[C@@H](O)[C@H]1O` (stereo partly drawn) [D-allulose]: the Km is 44.9 ± 5.1 mM.

As to `OCC1(O)OC[C@@H](O)[C@H](O)[C@H]1O` (stereo partly drawn) [D-sorbose], the Km came out at 61.6 ± 4.8 mM.

In the case of `OCC1(O)OC[C@@H](O)[C@H](O)[C@@H]1O` (stereo partly drawn) [D-tagatose], the Km is 52.7 ± 6.2 mM.
